Results published in patent US20130287807A1, “COMPOUNDS FOR TREATING SYMPTOMS ASSOCIATED WITH PARKINSON'S DISEASE” (priority 2008, published 2013).
Ends that are not written are not given here.

Experiments:
[1] = tested on: monoclonal antibody MV-002; assay: In vitro binding assay (ELISA), BSA-coupled peptides, parental antibody MV-002; design: species or system C57/B16 mice; conditions: Table 1 (MV-002); peptide-BSA on plate, compared to original epitope
Protocol: Peptides derived from Phage Display as well as variants thereof were coupled to BSA and bound to ELISA plates (1 μM; as indicated in the respective figures) and subsequently incubated with the monoclonal antibody that was used for the screening procedure to analyse binding capacity of identified peptides.
Legend to Table 1: the binding capacity is coded by the following binding code: 1:X describes the dilution factor of the parental AB. Ac- . . . indicates acetylated AA.

[2] = tested on: monoclonal antibody (DAEFRH-peptide-specific); assay: Inhibition assay (ELISA): mimotope peptides compete with plate-bound original epitope DAEFRH for recognition by the monoclonal antibody; format: binding, Mice; design: key to inhibition (s/m/—): s: strong inhibition; m: moderate inhibition; —: -: no inhibition; conditions: for inhibition of binding of the monoclonal antibody to the original epitope: text to FIGS. 2-9; for Inhibitory capacity of mimotopes: summary Tables 1 and 2 (Examples 2, 3); for inhibition (s/m/—): peptide lists of Example 4
Text: Mice are vaccinated with the 6mer peptide DAEFRH (natural N-terminal Aβ42 sequence) linked to the protein bovine serum albumin BSA (to make use of the hapten-carrier-effect), emulsified in CFA (first injection) and IFA (booster injections). DAEFRH-peptide-specific, antibody-producing hybridomas are detected by ELISA (DAEFRH-peptide-coated ELISA plates).
FIGS. 2 and 3 describe the results of inhibition assays performed with mimotope peptides included in and obtained from the 5 libraries (as described in WO 2004/062556). The mimotope peptides compete with the original epitope for recognition by the monoclonal antibody. Original epitope and mimotope peptides contain an additional C at the C-terminus for coupling to a protein carrier (if desired).
(§1) After blocking with PBS/BSA 1% (200 μl/well, 12 h, 4° C.), the plates are washed 3× times with PBS/Tween. Then, biotinylated monoclonal antibody (1:2000, 50 μl/well) and peptides (50 μl/well) at 50, 5, 0.5, 0.05, 0.005, and 0.0005 μg/ml are added for 20 min. at 37° C. The plates are washed 3× times with PBS/Tween and are incubated with horseradish peroxidase (HRP)-labeled streptavidin (100 μl/well, 30 min, RT). The plates are washed 5× times with PBS/Tween and are incubated with ABTS+H2O2(0.1% w/v, 10 to 45 min) and the reaction is stopped with citric acid followed by photometric evaluation (wavelength 405 nm).
as §1, with “different concentrations” for “50, 5, 0.5, 0.05, 0.005, and 0.0005 μg/ml”, “ABTS+H2O2 (0.1%” for “ABTS+H2O2(0.1%”
as §1, with “different concentrations” for “50, 5, 0.5, 0.05, 0.005, and 0.0005 μg/ml”

[3] = molecular target: monoclonal antibody MV-001; assay: ELISA on peptide-BSA; code 3 = strong binding, OD halfmax 1:>20000
[4] = competition ELISA, plate-bound DAEFRH-C-BSA

For HMRMYFEC [p4687], the “Binding Capacity” value [1] was 3 (strong binding :>320000).

In the case of GQIWFISC [p4666], the “Binding Capacity” value [1] is reported as 1 (weak binding :<40000).

With GMIVFPHC [p4679] the “Binding Capacity” value [1] was 3 (strong binding :>320000).

With GELFFEKC [p4795] the “Binding Capacity” value [1] was 2 (medium binding :40000-320000).

In the case of GTIFFRDC [p4692], the “Binding Capacity” value [1] is reported as 1 (weak binding :<40000).

In the case of GQLKFPFC [p4690], the “Binding Capacity” value [1] is reported as 3 (strong binding :>320000).

With GQIKFAQC [p4694] the “Binding Capacity” value [1] was 3 (strong binding :>320000).

GQILFPVC [p4684] was tested, and the “Binding Capacity” value [1] was 3 (strong binding :>320000).

For GEIRFELC [p4796], the “Binding Capacity” value [1] was 2 (medium binding :40000-320000).

For CGEIYFER [p4807], the “Binding Capacity” value [1] was 1 (weak binding :<40000).

With AIPLFVMC [p4682] the “Binding Capacity” value [1] was 1 (weak binding :<40000).

For GSLFFWPC [p4688], the “Binding Capacity” value [1] was 2 (medium binding :40000-320000).

GTLIFHHC [p4695] was tested, and the “Binding Capacity” value [1] was 2 (medium binding :40000-320000).

With AGEIYFERC [p4806] the “Binding Capacity” value [1] was 1 (weak binding :<40000).

GDLKFPLC [p4683] was tested, and the “Binding Capacity” value [1] was 3 (strong binding :>320000).

GEMQFFIC [p4676] was tested, and the “Binding Capacity” value [1] was 3 (strong binding :>320000).

In the case of GELQFPPC [p4672], the “Binding Capacity” value [1] is reported as 3 (strong binding :>320000).

GELFFPKC [p4685] was tested, and the “Binding Capacity” value [1] was 3 (strong binding :>320000).

GEMWFALC [p4671] was tested, and the “Binding Capacity” value [1] was 3 (strong binding :>320000).

GQIRFDHC [p4669] was tested, and the “Binding Capacity” value [1] was 3 (strong binding :>320000).

In the case of `C[C@H](NC(=O)[C@H](CC(=O)O)NC(=O)[C@H](CCCNC(=N)N)NC(=O)[C@H](Cc1ccccc1)NC(=O)[C@H](CCC(=O)O)NC(=O)[C@H](Cc1c[nH]c2ccccc12)NC(=O)[C@@H](N)CC(=O)O)C(=O)N[C@@H](CS)C(=O)O` [Peptide 1241, DWEFRDA], the “inhibition of binding of the monoclonal antibody to the original epitope” value (“inhibition of binding … to the original epitope” for short) [2, 4] is reported as “block epitope recognition” and the “Inhibitory capacity of mimotopes” value [2] is reported as “strong”.

For KKELRI (KKELRIC) [Peptide 1234], the “inhibition of binding … to the original epitope” value [2, 4] was “hardly inhibitory” and the “Inhibitory capacity of mimotopes” value [2] was “none”.

In the case of DISFRG (DISFRGC) [Peptide 3010], the “inhibition of binding … to the original epitope” value [2, 4] is reported as “not inhibitory” and the “Inhibitory capacity of mimotopes” value [2] is reported as “none”.

In the case of GQIQFPLC [p4697], the “Binding Capacity” value [1] is reported as 3 (strong binding :>320000).

For `CC[C@H](C)[C@H](NC(=O)[C@H](CCCNC(=N)N)NC(=O)[C@H](CC(C)C)NC(=O)[C@H](CCC(=O)O)NC(=O)[C@H](Cc1c[nH]c2ccccc12)NC(=O)[C@@H](N)CC(=O)O)C(=O)N[C@@H](CS)C(=O)O` [Peptide 3002, DWELRI], the “inhibition of binding … to the original epitope” value [2, 4] was “block epitope recognition” and the “Inhibitory capacity of mimotopes” value [2] was “intermediate”.

With KLPLFVMC [p4691] the “Binding Capacity” value [1] was 1 (weak binding :<40000).

For SWFRNP [Peptide 4019], the “inhibition of binding … to the original epitope” value [2, 4] was “not inhibitory” and the “inhibition (s/m/—)” value [2] was “—”.

For GQIMFPRC [p4686], the “Binding Capacity” value [1] was 3 (strong binding :>320000).

For GELYFRAC [p4677], the “Binding Capacity” value [1] was 3 (strong binding :>320000).

With QLPLFVLC [p4700] the “Binding Capacity” value [1] was 1 (weak binding :<40000).

With GQIIFQSC [p4668] the “Binding Capacity” value [1] was 2 (medium binding :40000-320000).

With SAEFRTQ [Peptide 4015] the “inhibition of binding … to the original epitope” value [2, 4] was “strongly block epitope recognition” and the “inhibition (s/m/—)” value [2] was “s”.

With Ac-GEIYFERC [p4804] the “Binding Capacity” value [1] was 2 (medium binding :40000-320000).

In the case of ATYAYWN [Peptide 4038], the “inhibition of binding … to the original epitope” value [2, 4] is reported as “not inhibitory” and the “inhibition (s/m/—)” value [2] is reported as “—”.

With `C[C@@H](O)[C@H](NC(=O)[C@H](CCCNC(=N)N)NC(=O)[C@H](Cc1ccccc1)NC(=O)[C@H](CCC(=O)O)NC(=O)[C@H](Cc1c[nH]c2ccccc12)NC(=O)[C@@H](N)CO)C(=O)N[C@@H](CS)C(=O)O` [Peptide 4002, SWEFRT] the “IC50 (inhibition of monoclonal antibody recognition of DAEFRH)” value ([2]; competition ELISA, plate-bound DAEFRH-C-BSA, biotinylated mAb 1:2000) was “less than 0.4 μg/ml”, the “inhibition of binding … to the original epitope” value [2, 4] was “block epitope recognition” and the “Inhibitory capacity of mimotopes” value [2] was “strong”.

GEIRFALC [p4678] was tested, and the “Binding Capacity” value [1] was 3 (strong binding :>320000).

“DAEFRH (DAEFRHC) [Peptide 1737, reference compound]” was tested, and the “inhibition of binding … to the original epitope” value [2, 4] was “can successfully compete”.

With `CC[C@H](C)[C@H](NC(=O)[C@H](CCCNC(=N)N)NC(=O)[C@H](CC(C)C)NC(=O)[C@H](CCC(=O)O)NC(=O)[C@H](CCCCN)NC(=O)[C@@H](N)CC(=O)O)C(=O)N[C@@H](CS)C(=O)O` [Peptide 3001, DKELRI] the “inhibition of binding … to the original epitope” value [2, 4] was “block epitope recognition” and the “Inhibitory capacity of mimotopes” value [2] was “strong”.

For SGEIYFERC [p4805], the “Binding Capacity” value [1] was 1 (weak binding :<40000).

For `CC[C@H](C)[C@H](NC(=O)[C@H](CCCNC(=N)N)NC(=O)[C@H](CC(C)C)NC(=O)[C@H](CCC(=O)O)NC(=O)[C@H](CCCNC(=N)N)NC(=O)[C@@H](N)CC(=O)O)C(=O)N[C@@H](CS)C(=O)O` [Peptide 1235, DRELRI], the “inhibition of binding … to the original epitope” value [2, 4] was “block epitope recognition” and the “Inhibitory capacity of mimotopes” value [2] was “strong”.

B1: p4710 (peptide)
peptide: SAGSFRHC
For B1, the OD halfmax 1:X (dilution factor of the parental antibody at half-maximal OD) (dilutionfactor(1:x)) [3] was greater than 20000.

B2: p4744 (peptide)
peptide: SELRHSTC
B2 gave an OD halfmax 1:X (dilution factor of the parental antibody at half-maximal OD) (dilutionfactor(1:x)) [3] greater than 20000.

B3: p4722 (peptide)
peptide: EFLRHTLC
For B3, the OD halfmax 1:X (dilution factor of the parental antibody at half-maximal OD) (dilutionfactor(1:x)) [3] was greater than 20000.

B4: p4701 (peptide)
peptide: NELRHSTC
B4 gave an OD halfmax 1:X (dilution factor of the parental antibody at half-maximal OD) (dilutionfactor(1:x)) [3] greater than 20000.

B5: p4723 (peptide)
peptide: ATPLFRHC
B5 gave an OD halfmax 1:X (dilution factor of the parental antibody at half-maximal OD) (dilutionfactor(1:x)) [3] greater than 20000.

B6: p4726 (peptide)
peptide: LHIPFRHC
B6 gave an OD halfmax 1:X (dilution factor of the parental antibody at half-maximal OD) (dilutionfactor(1:x)) [3] greater than 20000.

B7: p4743 (peptide)
peptide: SNSEFRRC
In the case of B7, the OD halfmax 1:X (dilution factor of the parental antibody at half-maximal OD) (dilutionfactor(1:x)) [3] is reported as greater than 20000.

B8: p4702 (peptide)
peptide: GEMRHQPC
Work on B8 yielded an OD halfmax 1:X (dilution factor of the parental antibody at half-maximal OD) (dilutionfactor(1:x)) [3] greater than 20000.

B9: p4745 (peptide)
peptide: THMEFRRC
Molecule B9 has an OD halfmax 1:X (dilution factor of the parental antibody at half-maximal OD) (dilutionfactor(1:x)) [3] greater than 20000.

B10: p4714 (peptide)
peptide: ELFKHHLC
Work on B10 yielded an OD halfmax 1:X (dilution factor of the parental antibody at half-maximal OD) (dilutionfactor(1:x)) [3] greater than 20000.

B11: p4712 (peptide)
peptide: SEFSHSSC
B11 was tested, and the OD halfmax 1:X (dilution factor of the parental antibody at half-maximal OD) (dilutionfactor(1:x)) [3] was greater than 20000.
